# From patent US20040097422A1, “Methods of use for tripeptidyl peptidase II inhibitors as anticancer agents” (priority 2002, published 2004)
# “Also recorded” adds a separate entry of the source. Residues, ends and D or L forms follow the SMILES beside them. *: point of attachment. CH2Cl = ClC*
# Experiments:
# Type in all cases: cell-based, human
# U20S/centrin-GFP cells [1] = test: Abnormal centriole numbers in transiently transfected U20S/centrin-GFP cells after inhibitor treatment
# Description: (§1) Cell Culture and Transfections. Normal human keratinocytes (NHKs) were isolated from neonatal foreskins and cultured as described previously (Jones, et al. 1997 Genes Dev 11, 2101-11). NHKs were transiently transfected using FuGENE 6 (Roche Molecular Biochemicals, Indianapolis, Ind.) according to manufacturer's instructions. The human osteosarcoma cell line U20S was obtained from the American Type Culture Collection (ATCC) and maintained in Dulbecco's modified Eagle medium (DMEM) supplemented with 10% fetal bovine serum, 50 units/ml penicillin and 50 μg/ml streptomycin. Stable populations expressing centrin-GFP were generated by transfecting U20S cells with 10 μg of a centrin-GFP construct using calcium phosphate co-precipitation (Chen, et al. 1987 Mol Cell Biol 7, 2745-2752) and expansion of stable clones after G418 selection. All transient transfection experiments in U20S/centrin-GFP cells were performed using calcium phosphate coprecipitation (Chen, 1987 Mol Cell Biol 7, 2745-2752). Expression plasmids used were c-Myc, E2F-1, HPV-16 E7, HPV-16 E6, or a hemagglutinin-tagged dominant-negative DP1 mutant (DP 1-HA). Empty vector controls (pCMVneo) were included in all experiments. In all transient transfection experiments, cells were co-transfected with either farnesylatable green fluorescent protein (GFP), DsRed fluorescent protein, or cyan fluorescent protein (CFP; all from Clontech, Inc., Palo Alto, Calif.) as indicated and only cells expressing the respective fluorescent protein were evaluated. The human Burkitt's lymphoma cell line GA-10 was obtained from ATCC and maintained in RPMI 1640 medium containing 10 mM HEPES and supplemented with 10% fetal bovine serum, 50 units/ml penicillin and 50 μg/ml streptomycin. Adapted GA-10 cells were obtained by cultivation of cells in the presence of 1 μM clastolactacystin β-lactone (CLBL; Sigma Corp., St. Louis, Mo.) or 0.1% dimethyl sulfoxide (DMSO; ICN, Inc., Costa Mesa, California).
# Proteasome and TPPII inhibition. U20S/centrin-GFP cells were transiently transfected with expression plasmids as indicated using calcium phosphate coprecipitation, washed with PBS 14 hours after transfection, incubated in normal growth media for 8 hours, and incubated in the presence of the inhibitor for another 24 hours. For proteasome inhibition, clastolactacystin β-lactone (CLBL; Sigma Corp.) was used at a […] concentration dissolved in DMSO. The TPPII inhibitor H-Ala-Ala-Phe-chloromethylketone (AAF-CMK; Sigma Corp.) was used at a 1 or 10 μM concentration, respectively, dissolved in DMSO. TPPII inhibitors such as AAF-MCA (ala-ala-phe-methylcoumarin amide) are available from Peptides International, Inc., Louisville, Ky. […] Solvent controls (DMSO or water) were included in all experiments.
# Whether this observed increase of cells with abnormal centrosome numbers results from a primary duplication error was further addressed by analyzing the ability of c-Myc to induce abnormal centriole synthesis under transient conditions. Centriole number abnormalities induced by c-Myc were compared to those obtained with different oncogenic stimuli which have been reported previously to deregulate centrosome duplication (Duensing, 2000 Proc Natl Acad USA 97, 10002-7). Besides c-Myc, each of HPV-16 E7, the cooperating oncogene HPV-16 E6, and E2F-1 were included in these experiments. U20S/centrin-GFP cells were transiently transfected with expression plasmids as indicated, and mitochondrial DsRed fluorescent protein was used as a transfection marker (FIGS. 2c,d). Since duplication of centrioles prior to a cell division gives rise to four centrioles, cells with more than four centrioles were considered to have an abnormal number of centrioles.
# Analogous to cell cycle progression, centrosome duplication requires activity of the ubiquitin/proteasome machinery (Freed, et al. 1999 Gene Dev 13, 2242-57). […]
# U20S/centrin-GFP cells [2] = test: DNA content / cell cycle profile by propidium iodide flow cytometry; conditions: 10 μM, 24 hours
# Method: Flow cytometry. DNA content of cells was analyzed by propidium iodide staining followed by flow cytometry as described previously (Thompson, et al. 1997 Oncogene 15, 3025-35).
# TPPII = TPPII protein level in adapted GA-10 cells (immunoblot); conditions: GA-10 cells adapted to 1 μM CLBL
# Method: Immunological Methods. Immunoblot analysis was performed as described previously (Jones et al., 1997). Antibodies used were directed against c-Myc (9E10; Covance/Babco, Berkeley, California), p53 (Ab-6; Oncogene Research Products, Inc., San Diego, Calif.), HPV-16 E7 (ED17; Santa Cruz Biotechnology, Inc., Santa Cruz, California), E2F-1 (C-20; Santa Cruz), HA (12CA5; Boehringer Mannheim, Mannheim, Germany), tripetidyl peptidase II (OEM Concepts, Inc.; Toms River, New Jersey), or Actin (C-2, Santa Cruz).
# Based on observations herein that TPPII is required for c-Myc induced abnormal centriole duplication, the effect of growth of cells in the presence of a proteasome inhibitor on altered centrosome numbers, control of centrosome duplication, and cell viability was examined. Cells of a human t(8;14) positive, Epstein-Barr virus (EBV) negative Burkitt's lymphoma cell line GA-10 were used. Cells were grown in the presence of 1 μM CLBL (proteosome inhibitor clastolactacystin β-lactone) or with 0.1% DMSO as a solvent control.
# GA-10 cells = test: Abnormal centrosome numbers in GA-10 cells by γ-tubulin immunofluorescence; conditions: GA-10 cells adapted to 1 μM CLBL; untreated 18.7%, DMSO 19.9%
# Method: For immunofluorescence analysis, sections of formalin-fixed, paraffin-embedded tissue were processed as described previously (Duensing, 2000 Proc Natl Acad 801 USA 97, 10002-7). Cultured cells were either grown on coverslips or cytospin preparations were made from cells growing in suspension. Cells were fixed in 4% paraformaldehyde in PBS and permeabilized with 1% Triton-X 100 in PBS for 10 min each at room temperature. […] Ki-67 was detected using a mouse monoclonal antibody (clone Ki-67; Dako Cytomation California, Inc., Carpinteria, California) at a 1:100 dilution followed by a rhodomine red-labeled donkey anti-mouse secondary antibody as described above. […] Cells were analyzed using a Leica DMLB epifluorescence microscope equipped with a multiband and a CFP filter set (Omega Optical, Brattleboro, Vt.) and a Sony DKC5000 camera system. […]
# The proportion of cells with abnormal centrosome numbers was determined using immunofluorescence microscopy for γ-tubulin. […]
# [3] = tested on: Burkitt's lymphoma cell line GA-10; test: Viability of GA-10 cells grown with proteasome inhibitor (trypan blue exclusion)
# Method: FIG. […] FIG. 5b is an immunoblot analysis of TPPII and c-Myc expression in GA-10 cells adapted to grow in the presence of 1 μM CLBL or 0.1% DMSO. FIG. 5c is a visualizations of centrosomes in GA-10 cells adapted to grow in the presence of 0.1% DMSO (c) or 1 μM CLBL right. Immunofluorescence for γ-tubulin is rhodamine red. Nuclei were stained with DAPI. […] Each bar indicates average+standard error of triplicate colony counts.
# as §1, with “The human Burkitt's lymphoma cell line GA-10 was obtained from ATCC and maintained in RPMI 1640 medium containing 10 mM HEPES and supplemented with 10% fetal bovine serum, 50 units/ml penicillin and 50 μg/ml streptomycin. Adapted GA-10 cells were obtained by cultivation of cells in the presence of 1 μM clastolactacystin β-lactone (CLBL; Sigma Corp., St. Louis, Mo.) or 0.1% dimethyl sulfoxide (DMSO; ICN, Inc., Costa Mesa, California).” left out
# U20S/centrin-GFP cells [4] = test: Simultaneous Ki-67 proliferation and centriole number assay in c-Myc transfected cells; conditions: 10 μM butabindide for 24 hours
# Method: For immunofluorescence analysis, sections of formalin-fixed, paraffin-embedded tissue were processed as described previously (Duensing, 2000 Proc Natl Acad 801 USA 97, 10002-7). Cultured cells were either grown on coverslips or cytospin preparations were made from cells growing in suspension. Cells were fixed in 4% paraformaldehyde in PBS and permeabilized with 1% Triton-X 100 in PBS for 10 min each at room temperature. Cells were then blocked with 10% normal donkey serum (Jackson Immunoresearch, West Grove, Pa.) and incubated with a mouse monoclonal anti-γ-tubulin antibody (GTU-88; Sigma Corp.; St. Louis, Mo.) at a 1:2000 dilution overnight at 4° C. followed by a donkey anti-mouse rhodamine red conjugated secondary antibody (Jackson ImmunoResearch Laboratories, Inc., West Grove, Pa.) at a 1:100 dilution in PBS or a donkey anti-mouse FITC labeled secondary antibody at a 1:200 dilution in PBS for 2 hours at 37° C. Ki-67 was detected using a mouse monoclonal antibody (clone Ki-67; Dako Cytomation California, Inc., Carpinteria, California) at a 1:100 dilution followed by a rhodomine red-labeled donkey anti-mouse secondary antibody as described above. […] Cells were analyzed using a Leica DMLB epifluorescence microscope equipped with a multiband and a CFP filter set (Omega Optical, Brattleboro, Vt.) and a Sony DKC5000 camera system. […]
# CLBL-adapted GA-10 cells [5] = test: Soft agar colony formation (clonogenic assay); conditions: 10 μM butabindide, one week
# Method: Clonogenic assay. For assessment of soft agar colony formation, adapted GA-10 cells were suspended in 37° C.
# (§2) Centrosome duplication is necessary for orderly progression through mitosis and re-entry in the cell cycle (Hinchcliffe, et al. 2001 Genes Dev 15, 1167-81) in most mammalian cells. Whether TPPII activity is necessary for the growth of CLBL-adapted Burkitt's lymphoma cells was investigated.
# [6] = tested on: CLBL-adapted Burkitt's lymphoma cells; test: Mitotic spindle formation / centrosome function; conditions: butabindide treated
# Method: (§3) FIG. 5a is an analysis of viability of GA-10 cells grown in the presence of 1 μM CLBL or solvent control (0.1% DMSO) as determined by trypan blue exclusion. FIG. 5b is an immunoblot analysis of TPPII and c-Myc expression in GA-10 cells adapted to grow in the presence of 1 μM CLBL or 0.1% DMSO. FIG. 5c is a visualizations of centrosomes in GA-10 cells adapted to grow in the presence of 0.1% DMSO (c) or 1 μM CLBL right. Immunofluorescence for γ-tubulin is rhodamine red. Nuclei were stained with DAPI. […] Each bar indicates average+standard error of triplicate colony counts.
# as §2
# CLBL-adapted GA-10 cells [7] = test: Growth (viable cell number) of CLBL-adapted GA-10 cells; conditions: 0.1, 1.0, 10, 100 or 500 μM butabindide
# Method: as §3, §2
Compound,"Significance of decrease in abnormal centriole numbers, c-Myc transfected cells (U20S/centrin-GFP cells [1]; 1 μM AAF-CMK, p≦0.05)","Changes in abnormal centriole numbers in E2F-1 or HPV-16 E7 expressing cells (U20S/centrin-GFP cells [1]; E2F-1 or HPV-16 E7 transfected, AAF-CMK for 24 hours)","Proportion of c-Myc expressing cells with abnormal centriole numbers (U20S/centrin-GFP cells [1]; c-Myc transfected, 1 and 10 μM AAF-CMK for 24 hours)",Cell cycle profile (DNA content) (U20S/centrin-GFP cells [2]),Protein levels of TPPII (TPPII),"Decrease of abnormal centriole duplication driven by E2F-1 (U20S/centrin-GFP cells [1]; E2F-1 transfected, 0.8 mM CLBL for 24 hours, p≦0.05) [fold]","Decrease of abnormal centriole duplication driven by HPV-16 E7 (U20S/centrin-GFP cells [1]; HPV-16 E7 transfected, 0.8 mM CLBL for 24 hours, p≦0.01) [fold]","Proportion of cells with abnormal centriole numbers in cells expressing c-Myc (U20S/centrin-GFP cells [1]; c-Myc transfected, 0.8 mM CLBL for 24 hours)",Proportion of cells with abnormal centrosome numbers (GA-10 cells) [%],Cell viability of GA-10 cells ([3]; 1 μM CLBL),Time until cell survival was restored ([3]; 1 μM CLBL) [days],Cell viability of GA-10 cells at higher concentrations ([3]; higher concentrations of CLBL than 1 μM),"Number of c-Myc expressing cells with abnormal centriole numbers (U20S/centrin-GFP cells [1]; c-Myc transfected, butabindide increasing concentrations up to 10 μM, 24 hours, p≦0.001)",Ki-67 negative growth arrested cells (U20S/centrin-GFP cells [4]),Number of c-Myc expressing cells with abnormal centriole numbers (mostly Ki-67 positive) (U20S/centrin-GFP cells [4]; CFP transfection marker),Colony formation in soft agar (CLBL-adapted GA-10 cells [5]),Spindle formation in treated cells [6],Cells unable to nucleate a microtubule spindle ([6]; 44% without) [%],Growth of CLBL-adapted GA-10 cells (CLBL-adapted GA-10 cells [7])
"C[C@H](N)C(=O)N[C@@H](C)C(=O)N[C@@H](Cc1ccccc1)C(=O)CCl [AAF-CMK, H-Ala-Ala-Phe-chloromethylketone] (H-Ala-Ala-Phe-CH2Cl)",statistically significant,not significant,Reduction of the proportion of c-Myc expressing cells with abnormal centriole numbers,"neither treatment of cells with 10 μM AAF-CMK, nor with 10 μM butabindide, was found to substantially alter the cell cycle profile",,,,,,,,,,,,,,,
"CC(C)[C@H](O)[C@@]12NC(=O)[C@H](C)[C@@H]1OC2=O [CLBL, clastolactacystin β-lactone]",,,,,increased protein levels of TPPII,1.7,2,did not significantly reduce,19.4,marked decrease of cell viability,≤ 10,massive cell death,,,,,,,
CCCCNC(=O)[C@@H]1Cc2ccccc2N1C(=O)[C@@H](N)CC [butabindide],,,,"neither treatment of cells with 10 μM AAF-CMK, nor with 10 μM butabindide, was found to substantially alter the cell cycle profile",,,,,,,,,dose-dependent and statistically highly significant reduction; also recorded: completely blocks abnormal centriole duplication,major increases of Ki-67 negative growth arrested cells were not observed,decrease in the number of c-Myc expressing cells with abnormal centriole numbers,significantly suppressed colony formation,abrogation of spindle formation,66,reduced the growth of CLBL-adapted GA-10 cells in a dose dependent manner
